Experiments:
[1] = test system: late asthmatic response; experiment: Model experiment of asthma in guinea pigs (inhibition of late asthmatic response); type: in vivo, guinea pig; conditions: 10 mg/Kg orally 30 minutes before antigen; 6 animals; control 112 ± 17.8
Protocol: [Model experiment of asthma in guinea pigs. (Inhibition of late asthmatic response)]
Hartley strain female guinea pigs (SLC) having the body weight of about 350 g were used and 50 mg/Kg of cyclophosphamide (mfd. by Sigma Chemical Co.) was injected intraperitoneally. 2 Days after this pretreatment by injection, 1 mg of egg albumin (mfd. by Sigma Chemical Co.) and 100 mg of aluminum hydroxide (Wako Pure Chemical Industries Co., Ltd.) were injected intraperitoneally for sensitization. 3 Weeks after the sensitization, 10 μg of egg albumin and 100 mg of aluminum hydroxide were injected intraperitoneally for booster sensitization. 6 Weeks after the primary sensitization, asthma attach was induced by inhalation and exposure to egg albumin (4 mg/ml) by using a nebulizer (NE-U12: mfd. by Omron Corp.). The asthma reaction was determined by use of a body-plethysmography (using system developed by Uchida lecturer in internal department for respiratory organs at Tsukuba University; air-resist tube, respiratory amplifier and differential pressure transducer (mfd. by Nihon Koden); and osciloscope (mfd. by Iwasaki Tsushin)), so as to determine a […] of specific airway conductance (sGaw) under the condition without anesthesia. The sGaw value just before the administration of test comopound was measured and the value is referred to as 100. Test compound was suspended in 1% HPMC (hydroxymethylpropylcellulose mfd. by Shinetsu Chemical), and was administered orally 30 minutes before the exposure with the antigen. Then, sGaw value was measured in each points until 7 hours after the exposure with the antigen.

[2] = test system: contact hypersensitivity; experiment: Contact hypersensitivity model in mouse (atopic dermatitis model); type: in vivo; conditions: po, 2 mg/Kg p.o., 30 minutes before causal induction, 24 hours, read-out: Control % (intumescence of the pinna, untreated = 100)
Protocol: [Contact hypersensitivity model in mouse (Atopic dermatisis model)]
Test was conducted by referring to the method as described in "HIFU (a Japanese journal of dermatology)" Vol. 35, Supplemental Issue No. 15, pp. 96-106, published on March 1993.
CBA/J strain mice of 6-8 week age were used as the test animals (6-8 mice in one group). The mouse was sensitized by coating 150 μl of 5% of picryl chloride [dissolved in a mixture of acetone with olive oil (1:4)] on the shaved portion of skin in the back of mouse. […] 24 Hours after the causal induction, the effect for inhibiting contact hypersensitivity performed by the test compounds were evaluated by referring to the action for inhibiting intumescence of the pinna as an indication. The test compound was orally administered 30 minutes before the causal induction.
The following compounds were used for the test.
1) Compounds of the Present Invention:
(Dosage: 20 mg/Kg p.o., which is 7-10 times larger amount of dosages for compounds of the present invention)
The value obtained from the sensitization test without administration of the test compound was referred to as 100, and by comparing with the values obtained from the sensitization test with administration of the test compound was referred to "% control" values.

[3] = test system: formation of NO in cell strain RAW 264.7; experiment: Activity for inhibiting the formation of NO (LPS-stimulated RAW 264.7 cells, Griess reagent); type: cell-based; conditions: Mus musculus, RAW264.7, 1 × 10^-6 M, LPS 100 ng/ml, 24 hours, read-out: Ratio of formed amount of NO (reference culture medium = 100)
Protocol: [Evaluation test of activity for inhibiting the formation of NO]
Pharmacological tests of pyrimidine derivatives obtained in Examples 1, 12, 14, 19, 22, 24, 29 and 42 used as test compounds were conducted as follows.
Preparation of culture media and method of cell culture were conducted in accordance with those described in J. Biol. Chem., Vol. 269, No. 1, pp. 711-715, (1994), and determination of formed amount of NO was conducted in accordance with the method described in Anal. Biochem., Vol. 126, pp. 131-138, (1982), respectively.
(1) Cell Culture and Inducible Synthesis of NO in the Cells by Stimulation with Lipopolysaccharide (LPS)
Cell strain RAW 264.7 (ATCC) derived from the macrophage of mouse was placed on each one of the wells on a microplate having 24-wells so as to put the cells in an amount of 1×10^5 cells/U (well). The cells were incubated for 24 hours in a phenol red free-RPMI-1640 culture medium (mfd. by GIBCO) to which 10% of fetal bovine serum, 100 U/ml of penicillin (mfd. by Dainippon Pharmaceutical Co., Ltd.) and 100 μg/ml of streptomycin (mfd. by Dainippon Pharmaceutical Co., Ltd.) were added.
Next, the reference culture medium was prepared by adding 2 mM of L-arginine (mfd. by Wako Pure Chemical Industries, Ltd.), 10 μM/ml of tetrahydrobiopterin (mfd. by ALEXIS) and 100 ng/ml of lipopolysaccharide (LPS)(mfd. by Sigma Chemical Co.) to a phenol red free-RPMI-1640 culture medium. While, the reference culture medium without containing LPS was used as the blanc culture medium.
On the other hand, the test culture medium, containing the test compound was prepared by adding 0.2% of the test compounds dissolved in dimethyl sulfoxide (DMSO) to the reference culture medium to adjust the final concentration of the test compound to 1×10^-6 M.
Each one of the blank culture medium, reference culture medium and test culture medium containing the test compound was added, respectively to the well on the micro-plate where the above-mentioned cell strain RAW 264.7 was placed, and was incubated for 24 hours.
(2) Measurement of the Amount of Formed NO
Quantitative measurement of NO cannot be made directly, due to its unstability. Therefore, the amount of NO is measured indirectly, thus by forming nitrous acid ion (hereunder referred to as NO2^-) which is stable product derived from NO by use of Griess reagent [consisting of 1% of sulfanylamide and 0.1% of sulfuric acid solution containing 0.1% N-(1-naphthyl)ethylenediamine dihydrochloride], and measure the amount of NO2^-.
Into the supernatant of each one of the culture media was admixed with the same amount of Griess reagent respectively, and subjected to reaction at room temperature for 10 minutes, then the optical absorbance at 540 nm of the thus reacted culture medium was measured. While, the optical absorbance of sodium nitrite solution diluted with the culture medium was referred to as the standard value, and the amount of NO2^- formed in each one of these incubated culture media was measured. The amounts of NO2^- formed in the reference culture medium and the test culture medium were corrected by using the value of formed amount of NO2^- in the blanc culture medium.
On the basis of that the ratio of amounts of NO2^- formed in the reference culture medium and that of formed in the test culture medium is corresponding to the ratio of amount of NO formed in the reference culture medium and that of formed in the test culture medium. Thus the amount of NO2^- formed in the reference culture medium is referred to as the value of 100, and the value of amount of NO2^- formed in the test culture medium is referred to as amount of NO formed in the test culture medium.

COCc1cc(=O)n2ncc(-c3ccc(Sc4ccccc4)cc3)c2[nH]1 [Example 1, 4,7-dihydro-5-methoxymethyl-7-oxo-3-(4-phenylthiophenyl)pyrazolo[1,5-a]pyrimidine]
AUC (4-7 hours) of sGaw reaction [1]: 32.8 ± 9.2
response vs control in vivo at 2 mg/kg [2]: 53.7%
activity at 1 µM [3]: 56%
